Experiment [1] can be described thus: Antiproliferative activity against human EPG85-257RDB cells after 5 days by SRB assay. The following applies: 120 h. Format: functional, cell-based. For orientation: The SRB assay estimates cell density from bound dye.
Experiment [2] in a line: Resistance index, ratio IC50 for human EPG85-257RDB cells to IC50 for human EPG85-257 cells. It is filed as functional.
Experiment [3] is described as follows: Resistance index, ratio IC50 for human EPP85-181RDB cells to IC50 for human EPP85-181P cells. Format: functional.
Experiment [4] in a line: Resistance index, ratio IC50 for human EPP85-181RN cells to IC50 for human EPP85-181P cells. Format: functional.
Experiment [5] is described as follows: Antiproliferative activity against human EPP85-181RN cells after 5 days by SRB assay. Format: functional, cell-based. The settings on record: 120 h.
Experiment [6] can be described thus: Antiproliferative activity against human EPP85-181RDB cells after 5 days by SRB assay. It is filed as functional, cell-based. The settings on record: 120 h.

Two compounds from ChEMBL document CHEMBL3739280, “12,17-Cyclojatrophane and Jatrophane Constituents of Euphorbia welwitschii” (J Nat Prod, 2015) can be followed below.

One may read the IC50 as the concentration that gives 50% inhibition. A high value points to a need for much substance.

`C=C1[C@H](OC(=O)C(C)C)[C@@H](OC(=O)C(C)C)[C@@H](OC(=O)c2cccnc2)C(C)(C)[C@H](O)[C@H]2O[C@@]3(C[C@H](C)[C@H](OC(C)=O)[C@@H]3[C@H]1OC(C)=O)C(=O)[C@H]2C` showed a half-maximal inhibitory concentration (IC50) in experiment [1] of 17.2 µM. For the same compound, the “Ratio IC50” value in experiment [2] is 0.6.
With `C=C1[C@H](OC(=O)C(C)C)[C@@H](OC(=O)C(C)C)[C@@H](OC(=O)c2cccnc2)C(C)(C)[C@H]2O[C@@H]2[C@@H](C)C(=O)[C@@]2(O)C[C@H](C)[C@H](OC(C)=O)[C@@H]2[C@H]1OC(C)=O`, the “Ratio IC50” value in experiment [3] is 0.6; in experiment [4], 0.7; in experiment [2] it was 0.1. Moreover, the 50% inhibitory concentration (IC50) in experiment [1] worked out at 3.6 µM; in experiment [5], 21.3 µM; in experiment [6] it was 18.2 µM.
